From patent US20260021114A1, “COMPOSITION FOR LOWERING BLOOD LIPIDS AND CHOLESTEROL, PREPARATION METHOD THEREFOR, AND APPLICATION THEREOF” (Health and Happiness (H&H) Hong Kong Limited, priority 2022, published 2026)
Marks after values point to notes of the source that are not given here.

Key:
[1] = test system: zebrafish hyperlipidemia model; experiment: Efficacy evaluation of lowering triglyceride (Oil Red O staining of tail blood vessels); assay type: in vivo
Protocol: 5 dpf melanin allele mutant translucent Albino strain zebrafish were randomly selected and put in beakers, with 30 fish per beaker. The atorvastatin calcium and samples (see Table 3 for final concentration) were administered by dissolving in water respectively, and the normal control group and the model control group were set at the same time, and the volume of each beaker was 25 mL. Except for the normal control group, all other experimental groups were given high-fat feed in water (the high-fat feed was glucose with a final concentration of 3wt % and egg yolk powder with a final concentration of 1.5 mg/mL) to establish a zebrafish hyperlipidemia model. The samples were co-processed with high-fat feed for 15 hours (co-processed for 7.5 hours per day and kept in fish farming water at 28° C. for the rest of the day). After treatment at 28° C. for 48 hours, Oil Red O was given for whole-body fat staining. After the staining, 10 zebrafish from each experimental group were randomly selected and photographed under a dissection microscope. […] The staining intensity of the zebrafish tail blood vessels was analyzed, and the efficacy of atorvastatin calcium and sample in lowering triglycerides was evaluated based on the statistical analysis results of this indicator. Statistical processing results are expressed as mean +SE. […]

[2] = test system: model zebrafish; experiment: MTC determination in zebrafish hyperlipidemia model; assay type: in vivo
Protocol: 5 dpf melanin allele mutant translucent Albino strain zebrafish were randomly selected and put in beakers, with 30 fish per beaker (experimental group). The atorvastatin calcium and samples (see Table 2 for final concentration) were administered by dissolving in water respectively, and the normal control group and the model control group were set at the same time, and the volume of each beaker was 25 mL. Except for the normal control group, all other experimental groups were given high-fat feed in water (the high-fat feed was glucose with a final concentration of 3 wt % and egg yolk powder with a final concentration of 1.5 mg/mL) to establish a zebrafish hyperlipidemia model. The samples were co-processed with high-fat feed for 15 hours (co-processed for 7.5 hours per day and kept in fish farming water at 28° C. for the rest of the day). During sample processing, the number of dead zebrafish in each experimental group was counted every day and removed in time. After treatment at 28° C. for 48 hours, the minimum toxic concentration (MTC) of atorvastatin calcium and samples to model zebrafish was determined.

[3] = test system: zebrafish hyperlipidemia model; experiment: Efficacy evaluation of lowering cholesterol (cholesterol fluorescent probe, tail blood vessels); assay type: in vivo
Protocol: 5 dpf melanin allele mutant translucent Albino strain zebrafish were randomly selected and put in beakers, with 30 fish per beaker. The atorvastatin calcium and samples (see Table 4 for final concentration) were administered by dissolving in water respectively, and the normal control group and the model control group were set at the same time, and the volume of each beaker was 25 mL. Except for the normal control group, all other experimental groups were given high-fat feed in water (the high-fat feed was glucose with a final concentration of 3wt % and egg yolk powder with a final concentration of 1.5 mg/mL) to establish a zebrafish hyperlipidemia model. The samples were co-processed with high-fat feed for 15 hours (co-processed for 7.5 hours per day and kept in fish farming water at 28° C. for the rest of the day). After treatment at 28° C. for 32 hours, cholesterol fluorescent probe (final concentration 1 mg/mL) was administered. After continuing the treatment for 16 hours, 10 zebrafish from each experimental group were randomly selected and photographed under a fluorescence microscope. […] The cholesterol fluorescence intensity of the zebrafish tail blood vessels was analyzed, and the efficacy lowering cholesterol of the samples was evaluated by the statistical analysis results of this index. Statistical processing results are expressed as mean±SE. […]

[4] = test system: hmgcra gene; experiment: Effect on the hmgcra gene expression levels (q-PCR); assay type: in vivo, zebrafish
Protocol: 5 dpf melanin allele mutant translucent Albino strain zebrafish were randomly selected and put in beakers, with 30 fish per beaker. The atorvastatin calcium and samples (see Table 7 for final concentration) were administered by dissolving in water respectively, and the normal control group and the model control group were set at the same time, and the volume of each beaker was 25 mL. Except for the normal control group, all other experimental groups were given high-fat feed in water (the high-fat feed was glucose with a final concentration of 3 wt % and egg yolk powder with a final concentration of 1.5 mg/mL) to establish a zebrafish hyperlipidemia model. The samples were co-processed with high-fat feed for 15 hours (co-processed for 7.5 hours per day). After treatment at 28° C. for 48 hours, total RNA of 2.00 μg zebrafish sample was taken, and 20.0 μL cDNA was synthesized according to the instructions of the cDNA first chain synthesis kit. The expression of β-actin and hmgcra genes was detected by q-PCR (see Table 6 for the sequence of primers). The RNA phase of hmgcra gene was calculated using […] as the internal reference of gene expression. Statistical processing results are expressed as mean +SE. Statistical analysis was performed with SPSS26.0 software, p<0.05 indicated a statistically significant difference.

Compound: CC(C)c1c(C(=O)Nc2ccccc2)c(-c2ccccc2)c(-c2ccc(F)cc2)n1CC[C@@H](O)C[C@@H](O)CC(=O)[O-].CC(C)c1c(C(=O)Nc2ccccc2)c(-c2ccccc2)c(-c2ccc(F)cc2)n1CC[C@@H](O)C[C@@H](O)CC(=O)[O-].[Ca+2] [Atorvastatin calcium]
- Triglyceride content (Unit in pixels, mean ± SE) ([1]; 11.6 μg/mL, 48 hours, tail blood vessels staining intensity): 11104 ± 588***^c pixels
- lowering of triglycerides compared with the model control group (in words) ([1]; P<0.05 vs model control group): significantly lower triglycerides
- Death rates (%) ([2]; 11.6 μg/mL, n = 30, 48 hours): 0%
- Number of deaths (fish) ([2]; 11.6 μg/mL, n = 30, 48 hours): 0 fish
- MTC ([2]; model zebrafish, high-fat feed, 28° C. for 48 hours): 11.6 µg/mL
- Cholesterol content (Unit in pixels, mean ± SE) ([3]; 11.6 μg/mL, 48 hours, tail blood vessels cholesterol fluorescence intensity): 122765 ± 11371 pixels
- lowering of cholesterol compared with the model control group (in words) ([3]; P<0.05 vs model control group): significantly lower cholesterol
- Relative expression of hmgcra gene (mean ± SE) ([4]; 11.6 μg/mL, 48 hours, β-actin internal reference, model control = 1): 0.542 ± 0.003***^a
- reduction of hmgcra gene expression levels compared with the model control group (in words) ([4]; P<0.05 vs model control group): significantly reduce the hmgcra gene expression levels
